# Source: patent US20260285809A1, “CRYSTAL OF N-(BENZOYL)-PHENYLALANINE COMPOUND, AND PHARMACEUTICAL COMPOSITION THEREOF, AND PREPARATION METHOD THEREFOR AND USE THEREOF” (Hangzhou Apeloa Medicine Research Institute Co., Ltd., priority 2022, published 2026)
# How the values were obtained:
# Type in all cases: physicochemical
# [1] = Hygroscopicity by dynamic moisture absorber (DVS); conditions: for Weight gain at 80% RH: DVS, 25° C.; for Hygroscopicity (definition criteria for hygroscopic weight gain): from weight gain at 80% RH
# Protocol: The humidity change for each gradient within 0%~90% is 10%. Airflow: 200 ml/min; temperature: 25° C.; testing point: one testing point taken every 10% increase in humidity.
# Take an appropriate amount of the test sample (the compound shown by Formula (I) in the form of Crystal Form A) to test its hygroscopicity with a dynamic moisture absorber.
# Take an appropriate amount of the test sample (the compound shown by Formula (II) in the form of Crystal Form B) to test its hygroscopicity with a dynamic moisture absorber.
# [2] = Solid-state stability under high temperature, high humidity, light exposure and acceleration conditions (HPLC purity, XRPD form); conditions: for remaining at 168 h / remaining at 360 h: solid state
# Description: Sample on the 7th and 15th day to observe the color change of the samples. Analyze the sample purity and crystal form through HPLC and XPRD detection, respectively.
# Sample on the 15th day to observe the color change of the sample. Analyze the sample purity and crystal form through HPLC and XPRD detection, respectively.
# [3] = Solubility in biological media (FaSSIF, FeSSIF), HPLC detection; conditions: for solubility at 0.5 h / solubility at 2 h / solubility at 24 h / Solubility: 37° C.
# Protocol: (§1) Add 20 mg of the sample (the compound shown by Formula (I) in the form of Crystal Form A) into a 10 ml conical tube, and then add 4 ml of water or biological medium (FeSSIF (pH 5.0) or FaSSIF (pH 6.5)), respectively. Shake the solution at 37° C. for 24 h in a constant temperature bath at 1000 rpm, and take samples at 0.5 h, 2 h and 24 h, respectively. Filter the samples through an aquo-system microporous filter membrane and discard the initial filtrate to obtain the test solution.
# Perform an HPLC detection for the test solution ([…]), and calculate the sample concentration according to the standard curve method.
# as §1, with “(II)” for “(I)”, “B)” for “A)”
# [4] = Acceleration 40° C./75% RH, 15d
smiles,measurement,setting,value
"O=C(N[C@@H](Cc1ccc(N2C(=O)C3(CC3)c3ccc(F)c(F)c32)cc1)C(=O)O)c1c(F)cccc1Cl [Crystal Form A, (S)-2-(2-chloro-6-fluorobenzoyl amido)-3-(4-(6′,7′-difluoro-2′-oxospiro [cyclopropane-1,3′-indoline]-1′-yl)phenyl) propionic acid]",Weight gain at 80% RH,[1],0.09%
same,Hygroscopicity (definition criteria for hygroscopic weight gain),[1],no or almost no hygroscopicity
same,Change in purity and crystal form (in words),"[2]; 15 days at 60° C., 92.5% RH, 4500 lux and 40° C./75% RH",no significant changes
same,Crystal form (XRPD),"[2]; Acceleration 40° C./75% RH, 7d",Unchanged
same,Crystal form (XRPD),[2]; [4],Unchanged
same,Crystal form (XRPD),"[2]; High humidity 92.5% RH, 7d",Unchanged
same,Crystal form (XRPD),"[2]; High humidity 92.5% RH, 15d",Unchanged
same,Crystal form (XRPD),"[2]; High temperature 60° C., 7d",Unchanged
same,Crystal form (XRPD),"[2]; High temperature 60° C., 15d",Unchanged
same,Crystal form (XRPD),"[2]; Light exposure 4500 lux, 7d",Unchanged
same,Crystal form (XRPD),"[2]; Light exposure 4500 lux, 15d",Unchanged
same,remaining at 168 h,"[2]; Acceleration 40° C./75% RH, 7d",99.4%
same,remaining at 360 h,[2]; [4],99.4%
same,remaining at 168 h,"[2]; High humidity 92.5% RH, 7d",99.3%
same,remaining at 360 h,"[2]; High humidity 92.5% RH, 15d",99.3%
same,remaining at 168 h,"[2]; High temperature 60° C., 7d",99.4%
same,remaining at 360 h,"[2]; High temperature 60° C., 15d",99.4%
same,remaining at 168 h,"[2]; Light exposure 4500 lux, 7d",99.2%
same,remaining at 360 h,"[2]; Light exposure 4500 lux, 15d",99.2%
same,solubility at 0.5 h,"[3]; FaSSIF (pH 6.5), 0.5 h",2130 µg/mL
same,solubility at 2 h,"[3]; FaSSIF (pH 6.5), 2 h",2230 µg/mL
same,solubility at 24 h,"[3]; FaSSIF (pH 6.5), 24 h",2220 µg/mL
same,solubility at 0.5 h,"[3]; FeSSIF (pH 5.0), 0.5 h",460 µg/mL
same,solubility at 2 h,"[3]; FeSSIF (pH 5.0), 2 h",480 µg/mL
same,solubility at 24 h,"[3]; FeSSIF (pH 5.0), 24 h",490 µg/mL
same,Solubility in FeSSIF and FaSSIF (in words),[3],good solubility
same,Solubility in FeSSIF and FaSSIF (in words),[3]; listed as Crystal form A,relatively good
"O=C(N[C@@H](Cc1ccc(N2C(=O)C3(CC3)c3ccc(F)c(F)c32)cc1)C(=O)O)c1c(F)cccc1Cl [Crystal Form B, (S)-2-(2-chloro-6-fluorobenzoyl amido)-3-(4-(6′,7′-difluoro-2′-oxospiro [cyclopropane-1,3′-indoline]-1′-yl)phenyl) propionic acid]",Weight gain at 80% RH,[1],0.71%
same,Hygroscopicity (definition criteria for hygroscopic weight gain),[1],slight hygroscopicity
same,Solubility,"[3]; FaSSIF (pH 6.5), 0.5 h",3187 µg/mL
same,Solubility,"[3]; FaSSIF (pH 6.5), 2 h",2961 µg/mL
same,Solubility,"[3]; FaSSIF (pH 6.5), 24 h",2791 µg/mL
same,Solubility,"[3]; FeSSIF (pH 5.0), 0.5 h",869 µg/mL
same,Solubility,"[3]; FeSSIF (pH 5.0), 2 h",815 µg/mL
same,Solubility,"[3]; FeSSIF (pH 5.0), 24 h",734 µg/mL
same,Solubility in FeSSIF and FaSSIF (in words),[3],relatively good
